ChEMBL document CHEMBL4002645, “Discovery of Potent, Selective, and Structurally Novel Dot1L Inhibitors by a Fragment Linking Approach” (ACS Med Chem Lett, 2017)
Values belong to the compound of their own block, whether it stands above or below them.

How the values were obtained:
[1] = target: T1, Histone-lysine N-methyltransferase, H3 lysine-79 specific (Homo sapiens, UniProt Q8TEK3); assay: Inhibition of DOT1L (2 to 416 residues) (unknown origin) using biotinylated nucleosomes as substrate preincubated for 30 mins followed by substrate addition in presence of [3H-Me]SAM by scintillation proximity assay
Target sequence in this assay (Q8TEK3 whole entry, the tested form may be a part): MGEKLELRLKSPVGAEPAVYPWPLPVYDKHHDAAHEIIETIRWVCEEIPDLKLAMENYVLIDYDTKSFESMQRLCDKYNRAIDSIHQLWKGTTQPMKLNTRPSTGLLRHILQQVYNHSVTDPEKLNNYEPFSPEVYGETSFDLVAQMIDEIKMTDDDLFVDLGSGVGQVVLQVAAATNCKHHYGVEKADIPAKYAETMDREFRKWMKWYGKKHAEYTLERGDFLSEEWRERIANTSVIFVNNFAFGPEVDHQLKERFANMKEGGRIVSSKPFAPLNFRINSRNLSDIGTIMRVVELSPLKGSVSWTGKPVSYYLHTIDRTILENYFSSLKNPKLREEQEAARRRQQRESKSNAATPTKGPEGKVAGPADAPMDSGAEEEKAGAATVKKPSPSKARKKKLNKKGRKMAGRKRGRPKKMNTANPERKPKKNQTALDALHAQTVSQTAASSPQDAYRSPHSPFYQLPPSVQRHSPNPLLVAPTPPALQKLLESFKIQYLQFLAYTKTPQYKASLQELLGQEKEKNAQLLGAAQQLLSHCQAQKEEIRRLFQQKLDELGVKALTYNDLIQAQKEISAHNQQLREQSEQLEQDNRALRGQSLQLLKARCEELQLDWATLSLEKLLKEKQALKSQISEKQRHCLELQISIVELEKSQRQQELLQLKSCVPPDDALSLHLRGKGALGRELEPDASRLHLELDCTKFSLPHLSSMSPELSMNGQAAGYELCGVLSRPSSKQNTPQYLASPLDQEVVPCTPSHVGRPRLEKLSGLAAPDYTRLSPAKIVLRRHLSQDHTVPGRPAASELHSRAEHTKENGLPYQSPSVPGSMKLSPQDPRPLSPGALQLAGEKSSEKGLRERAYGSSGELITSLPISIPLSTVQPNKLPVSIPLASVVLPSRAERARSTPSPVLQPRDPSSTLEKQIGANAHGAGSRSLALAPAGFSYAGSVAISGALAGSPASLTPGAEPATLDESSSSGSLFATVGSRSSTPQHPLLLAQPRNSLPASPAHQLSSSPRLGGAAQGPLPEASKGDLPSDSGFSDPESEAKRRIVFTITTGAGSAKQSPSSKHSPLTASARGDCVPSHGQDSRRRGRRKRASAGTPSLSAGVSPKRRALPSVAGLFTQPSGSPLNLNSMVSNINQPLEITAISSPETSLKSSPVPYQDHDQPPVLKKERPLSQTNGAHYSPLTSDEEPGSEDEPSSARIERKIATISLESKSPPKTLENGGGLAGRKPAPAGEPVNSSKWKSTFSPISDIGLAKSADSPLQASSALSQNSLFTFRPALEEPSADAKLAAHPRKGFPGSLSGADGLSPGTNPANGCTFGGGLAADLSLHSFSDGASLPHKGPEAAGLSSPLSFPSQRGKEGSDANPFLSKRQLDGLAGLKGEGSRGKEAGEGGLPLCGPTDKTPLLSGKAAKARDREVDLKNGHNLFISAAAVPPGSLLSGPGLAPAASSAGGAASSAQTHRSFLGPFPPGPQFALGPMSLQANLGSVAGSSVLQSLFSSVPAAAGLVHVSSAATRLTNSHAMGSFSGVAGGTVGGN

[2] = target: T1, Histone-lysine N-methyltransferase, H3 lysine-79 specific; assay: Binding affinity to human Avi-tagged biotinylated DOT1L (2 to 416 residues) assessed as target residence time at 100 nM by surface plasmon resonance assay
Target sequence in this assay (Q8TEK3 whole entry, looked up, the tested form may be a part): as the sequence (Q8TEK3 whole entry, the tested form may be a part) above

MV4-11 = assay: Antiproliferative activity against human MV4-11 cells harboring MLL-AF4 treated for 6 hrs measured after 8 days by Celltiter-Glo reagent based assay; assay type: functional, cell-based
[3] = target: T1, Histone-lysine N-methyltransferase, H3 lysine-79 specific; assay: Inhibition of DOT1L in human HeLa cells assessed as reduction in H3K79me2 level after 72 hrs by ELISA; assay type: cell-based
Target sequence in this assay (Q8TEK3 whole entry, the tested form may be a part): as above

[4] = target: T1, Histone-lysine N-methyltransferase, H3 lysine-79 specific; assay: Inhibition of DOT1L in human MOLM13 cells assessed as suppression of HoxA9 gene after 72 hrs by luciferase reporter gene assay; assay type: cell-based
Target sequence in this assay (Q8TEK3 whole entry, the tested form may be a part): as above

[5] = target: T1, Histone-lysine N-methyltransferase, H3 lysine-79 specific; assay: Competitive inhibition of DOT1L (2 to 416 residues) (unknown origin) using biotinylated nucleosomes as substrate preincubated for 30 mins followed by substrate addition in presence of [3H-Me]SAM by scintillation proximity assay
Target sequence in this assay (Q8TEK3 whole entry, the tested form may be a part): as above

- IC50 ([1]; read-out: IC50): 4 nM
SMILES: O=C(CNC(=O)Nc1ccc2ccn(-c3ccccc3Cl)c2c1)NCCCN[C@@H]1CCCN(c2ncnc3[nH]ccc23)C1

- IC50 ([1]; read-out: IC50): 0.15 nM
SMILES: CN(CCCNC(=O)CNC(=O)Nc1ccc2ccn(-c3ccccc3Cl)c2c1)[C@@H]1CCCN(c2ncnc3[nH]ccc23)C1

- IC50 ([1]; read-out: IC50): 4 nM
SMILES: O=C(CNC(=O)Nc1ccc2ccn(-c3ccccc3Cl)c2c1)NCCCCN[C@@H]1CCCN(c2ncnc3[nH]ccc23)C1

- IC50 ([1]; read-out: IC50): < 0.1 nM
- TIME [2]: > 5 h
- IC50 [3]: 3 nM
- IC50 [4]: 17 nM
- IC50 (MV4-11): 5 nM
- Ki [5]: 0.002 nM
SMILES: Cc1ncccc1-c1c(Cl)sc2ccc(NC(=O)NCC(=O)NCCCN(C)[C@@H]3CCCN(c4ncnc5[nH]ccc45)C3)cc12

More lines, now with the values behind:

SMILES: CC(C)N(C[C@H]1O[C@@H](n2cnc3c(N)ncnc32)[C@H](O)[C@@H]1O)[C@H]1C[C@@H](CCc2nc3cc(C(C)(C)C)ccc3[nH]2)C1 [PINOMETOSTAT]
- TIME [2]: > 5 h
- IC50 (MV4-11): 15 nM

SMILES: N[C@@H]1CCCN(c2ncnc3[nH]ccc23)C1
- IC50 ([1]; read-out: IC50): 240000 nM

SMILES: CN[C@@H]1CCCN(c2ncnc3[nH]ccc23)C1
- IC50 ([1]; read-out: IC50): 141000 nM

SMILES: NC(=O)CNC(=O)Nc1ccc2ccn(-c3ccccc3Cl)c2c1
- IC50 ([1]; read-out: pIC50 (converted)): 7940 nM

SMILES: Nc1ncnc2c1ncn2[C@@H]1O[C@H](CO)[C@@H](O)[C@H]1O [ADENOSINE]
- IC50 ([1]; read-out: IC50): 100000 nM
